# Earlier results as cited in patent publication US20030049260A1, “Method of improving cognitive function” (priority 2001, published 2003).
# Settings: for Change in Symbol Digit: max. increase: duration 12 weeks, An J Geriatr Psychiatry 1999;7:221-227
smiles,measurement,setting,value
CNCCC(Oc1ccc(C(F)(F)F)cc1)c1ccccc1 (stereo not drawn) [Fluoxetine],Change in Symbol Digit: max. increase,,10% increase
CNC1(c2ccccc2Cl)CCCCC1=O (stereo not drawn) [Ketamine],Change in Symbol Digit: decline,in vivo,5-10% decline
CN[C@@H](C)Cc1ccccc1 [Methamphetamine],Change in Symbol Digit: reduction in drug group as compared to a control group,in vivo,Significant 14%
CC(C)NCC(O)COc1cccc2ccccc12 (stereo not drawn) [Propranolol],Change in Symbol Digit: decline as compared to placebo,"duration 8 hours, Br. J. Clin Pharmac 1984;17:31-36",10-15% decline
CN[C@H]1CC[C@@H](c2ccc(Cl)c(Cl)c2)c2ccccc21 [Sertraline],Change in Symbol Digit: max. increase,,21% increase
Cc1nnc2n1-c1ccc(Cl)cc1C(c1ccccc1Cl)=NC2 [Triazolam],Change in Symbol Digit: reduction,in vivo,10-20% reduction
